What was measured:
[1] = tested on: phenylbenzquinone (PBQ) writhing; experiment: Inhibition of phenylbenzquinone (PBQ) writhing in mice; format: in vivo, mice (C.B.L., CD1); conditions: Mus musculus, oral, PBQ 2.0 mg/kg i.p.
Protocol: b. Inhibition of phenylbenzquinone (PBQ) writhing in mice:
Groups of 10 male mice (C.B.L., CD1, 18-22 grams) were food deprived overnight prior to the experiments. Test substances, suspended or dissolved in 1% methylcellulose, were administered orally (0.1 ml/10 grams body weight) at various times prior to administration of PBQ (2.0 mg/kg i.p.). The mice were placed in individual boxes and observed for 10 minutes (5 to 15 minutes after PBQ). The number of "writhes" (abdominal contraction, lordosis and hindlimb extension) for each animal was recorded and the group means and standard errors were calculated. The means obtained from drug treated groups were compared with the vehicle control mean values and percent inhibition of writhing was calculated as follows: [formula]

adjuvant arthritis = experiment: Rat adjuvant arthritis test (adjuvant); format: in vivo; conditions: for ED50: rat adjuvant arthritis
From the text: c. Rat adjuvant arthritis test (adjuvant)
The test was done in accordance with procedures well-known in the art (see: C. A. Winter, Arthr. Rheum 9, 394-404 (1966).

in vivo = experiment: in vivo; parameters: species or system Rats (Sprague-Dawley); conditions: rat, po
Protocol: The GHLF test is conducted according to the following procedure:
Rats (Sprague-Dawley, Males, 120-180 gm) were fasted overnight and dosed orally with drug suspended in 0.5% methylcellulose. The drug concentration was adjusted so that each animal received 1.0 ml/100 gm body weight. Four hours later the animals were killed by asphixiation in carbon dioxide, the stomachs removed, cut open and everted. The mucosal lining was washed and examined under 3X magnification. The lesions are indentified as perforations of the gastric mucosa many of which perforate right through the wall of the stomach.
The results are expressed in two ways, the average number of lesions per stomach, and the number of animals in the group showing at least one lesion.

Compound	ED50 [1]	protection from bone and cartilage destruction (adjuvant arthritis; at 30 mg/kg)	ED50 (adjuvant arthritis)	TD50 at 4 h (in vivo)	protection from bone and cartilage destruction (adjuvant arthritis; at 10 mg/kg)
CCOC(=O)C1CCn2c1cc(C)c2C(=O)c1cccn1C (centres unmarked) [Prior Art Compound, reference compound]	1 mg/kg	No protection	30 mg/kg	10 mg/kg	
CCOC(=O)C1CCn2c1cc(C)c2C(=O)c1ccc(SC)n1C (centres unmarked) [RZ = CH3 S, R^4 = C2 H5, ethyl 5-(1-methyl-5-methylthio-2-pyrroyl)-1,2-dihydro-6-methyl-3H-pyrrolo-[1,2-a]pyrrole-1-carboxylate]	0.17 mg/kg		7.5 mg/kg	90 mg/kg	Protection
Cc1cc2n(c1C(=O)c1ccc(Cl)n1C)CCC2C(=O)O (centres unmarked) [RZ = Cl, R^4 = H, 5-(1-methyl-5-chloro-2-pyrroyl)-1,2-dihydro-6-methyl-3H-pyrrolo[1,2-a]pyrrole-1-carboxylic acid]	2.1 mg/kg			15 mg/kg	
CSc1ccc(C(=O)c2c(C)cc3n2CCC3C(=O)O)n1C (centres unmarked) [RZ = CH3 S, R^4 = H, 5-(1-methyl-5-methylthio-2-pyrroyl)-1,2-dihydro-6-methyl-3H-pyrrolo-[1,2-a]pyrrole-1-carboxylic acid]				15 mg/kg	

Source: patent publication US4511724A, “5-(Pyrrol-2-oyl)-1,2-dihydro-3H-pyrrolo [1,2-a]pyrrole derivatives as anti-inflammatory and analgesic agents” (Merck & Co., Inc., priority 1982, dated 1985)
